Source: ChEMBL document CHEMBL1141432, “Mono- and Di-sesquiterpenoids from Chloranthus spicatus” (2007)
Values after ≈ are worked out from the molar mass of the structure shown.

Tests used:
Candida parapsilosis = experiment: Antifungal activity against Candida parapsilosis by NCCLS M27-A method; type: functional; conditions: Lodderomyces parapsilosis
Candida albicans = experiment: Antifungal activity against Candida albicans by NCCLS M27-A method; type: functional

MIC (Candida parapsilosis) [µM] | MIC (Candida albicans) [µM] | Compound
> 0.157 | > 0.157 | CC1=C2C3=C4[C@@](C)(C(=O)[C@@]2(O)OC1=O)[C@@H]1C[C@@H]1[C@@]4(O)C[C@@H]1[C@]32OC(=O)C3=C2C[C@H]2[C@](O)(COC(=O)/C=C(\C)COC(=O)CCC(=O)OC3)[C@H]3C[C@@H]3[C@]12C [CHLORAHOLOLIDE B]
0.068 (≈ 0.05 µg/mL) | 0.068 (≈ 0.05 µg/mL) | CC1=C2C3=C4[C@](C)([C@@H]5C[C@@H]5[C@@]4(O)C[C@@H]4[C@]35OC(=O)C3=C5C[C@H]5[C@](O)(COC(=O)/C=C(\C)COC(=O)CCC(=O)OC3)[C@H]3C[C@@H]3[C@]45C)[C@@H](O)[C@@]2(O)OC1=O [CHLORAMULTILIDE B]
> 0.157 | > 0.157 | CC1=C2C3=C4[C@](C)([C@@H]5C[C@@H]5[C@@]4(O)C[C@@H]4[C@]35OC(=O)C3=C5C[C@H]5[C@](O)(COC(=O)/C(C)=C/COC(=O)CCC(=O)OC3)[C@H]3C[C@H]3[C@]45C)[C@@H](O)[C@@]2(O)OC1=O [CHLORAMULTILIDE C]
> 0.157 | > 0.157 | C/C=C(\C)C(=O)OC[C@]1(O)[C@H]2C[C@H]2[C@]2(C)[C@@H]3C[C@@]4(O)C5=C(C6=C(C)C(=O)O[C@]6(O)[C@H](O)[C@@]5(C)[C@@H]5C[C@@H]54)[C@@]34OC(=O)C(CO)=C4C[C@@H]12 [CHLORAMULTILIDE D]
